Patent US20030082101A1, “Accelerators for increasing the rate of formation of free radicals and reactive oxygen species” (Cavalier Discovery, priority 2001, published 2003)
Where a name gives a salt, the structure may show the parent alone.

Legend:
Type in all cases: biochemical
deoxyribose [1] = test: TBARS assay, chelants during ultrasound exposure, ferrous iron (Example 1); details: 0.025 mM ferrous iron, 0.03-0.04 mM chelant, 0.01% hydrogen peroxide, pH 7.5, 30 W 2 MHz 10 min
Description: (§1) The following example uses the thiobarbituric acid-reactive substances (TBARS) assay to identify chelants that enhance radical production during ultrasound exposure. All solutions were prepared in pH 7.5 phosphate buffer containing approximately 2 mM deoxyribose, 0.01% hydrogen peroxide, 0.025 mM ferrous iron, and 0.03-0.04 mM chelant. Solutions were sonicated at 30 W, 2 MHz, 32-34 degrees Celsius for ten minutes using a PZT-8 1.8 cm diameter custom transducer. The sonicated solution was placed on an orbit shaker rotating at 25 RPM to ensure even sonication of the solution while the transducer was held stationary. Control solutions were placed in a controlled temperature bath at 32-34 degrees Celsius without sonication. After 10 minutes of treatment, 1 mL test solution was placed in a test tube followed by 2 mL of 1% 2-thiobarbituric acid and 2 mL of 2.8% trichloroacetic acid. The test tube was sealed and heated to 90 degrees Celsius for 30 minutes and allowed to cool to room temperature for 20 minutes. The absorbance at 532 nm was measured. The enhanced radical production during ultrasound exposure is determined by comparing the amount of deoxyribose degradation that occurs in the sonicated solution versus the control solution using the following equation: [formula]

deoxyribose [2] = test: TBARS assay, chelants during ultrasound exposure, ferric iron (Example 2); details: 0.02-0.03 mM ferric iron, 0.04-0.05 mM chelant, 0.01% hydrogen peroxide, pH 7.5, 30 W 2 MHz 10 min
Description: as §1, with “0.02-0.03” for “0.025”, “ferric” for “ferrous”, “0.04-0.05” for “0.03-0.04”, “was” for “is”

deoxyribose [3] = test: TBARS assay, anti tumor antibiotics, ultrasound (Example 12); details: 0.005 mM ferrous iron, 0.005 mM ferric iron, 15 min
Description: The following example uses the thiobarbituric acid-reactive substances (TBARS) assay to identify anti tumor antibiotics that enhance radical production during ultrasound. All solutions are prepared in pH 7.5 phosphate buffer containing approximately 2 mM deoxyribose, 0.01% hydrogen peroxide, 0.005 mM ferrous iron, 0.005 mM ferric iron, and the additives indicated in the table below. Solutions are sonicated at 30 W, 2 MHz, 32-34 degrees Celsius for fifteen minutes using a PZT-8 1.8 cm diameter custom transducer. The sonicated solution is placed on an orbit shaker rotating at 25 RPM to ensure even sonication of the solution while the transducer is held stationary. Control solutions are placed in a controlled temperature bath at 32-34 degrees Celsius without sonication. After 15 minutes of treatment, 1 mL test solution was placed in a test tube followed by 2 mL of 1% 2-thiobarbituric acid and 2 mL of 2.8% trichloroacetic acid. The test tube is sealed and heated to 90 degrees Celsius for 30 minutes and allowed to cool to room temperature for 20 minutes. The absorbance at 532 nm is measured. The enhanced radical production during ultrasound exposure is determined by comparing the amount of deoxyribose degradation that occurs in the sonicated solution versus the control solution using the following equation: [formula]

deoxyribose [4] = test: TBARS assay, chelants 0.07-0.11 mM during ultrasound exposure, ferrous iron (Example 3); details: 0.025 mM ferrous iron, 0.07-0.11 mM chelant, 0.01% hydrogen peroxide, pH 7.5, 30 W 2 MHz 10 min
Description: as §1, with “0.07-0.11” for “0.03-0.04”, “was” for “is”

deoxyribose [5] = test: TBARS assay, chelants 0.07-0.11 mM during ultrasound exposure, ferric iron (Example 4); details: 0.02-0.03 mM ferric iron, 0.07-0.11 mM chelant, 0.01% hydrogen peroxide, pH 7.5, 30 W 2 MHz 10 min
Description: as §1, with “0.02-0.03” for “0.025”, “ferric” for “ferrous”, “0.07-0.11” for “0.03-0.04”, “was” for “is”

[6] = Free radical production when exposed to ultrasound and a metal (statements in the description); details: for free radical production: when exposed to ultrasound and a metal
ferritin = test: Release of iron from ferritin assay, naphthoquinones, ultrasound (Example 8); details: iron release vs ultrasound without additive, 0.2 mg/mL ferritin, pH 7, 15 min
Description: The following example uses the release of iron from ferritin assay to show the effect of naphthoquinones on the release of iron from ferritin during ultrasound exposure. All solutions were prepared in pH 7 acetic acid solution containing approximately 0.2 mg/mL ferritin and 1 mM ferrozine, and the concentration of naphthoquinone indicated in the table below. Solutions were sonicated at 30 W, 2 MHz, 32-34 degrees Celsius for fifteen minutes using a PZT-8 1.8 cm diameter custom transducer. The sonicated solution was placed on an orbit shaker rotating at 25 RPM to ensure even sonication of the solution while the transducer was held stationary. Control solutions were placed in a controlled temperature bath at 32-34 degrees Celsius without sonication. After 15 minutes of treatment, an aliquot was tested for the presence of the iron-ferrozine chelate via absorbance at 562 nm. The amount of iron released was determined using the control solution corrected absorbance (subtract the absorbance of the control solution from the absorbance of the ultrasound solution). The corrected absorbance was compared to a ferrozine-iron standard curve to determine the amount of iron released. The enhanced iron release due to ultrasound exposure in the presence of the naphthoquinone was compared to the amount of enhanced iron release due to ultrasound exposure in the absence of any additives as follows: [formula]

O=C(O)CN(CC(=O)O)CC(=O)O [Nitriloacetic acid]
% Ultrasound Mediated Activity vs Control (deoxyribose [1]): 69% | % Ultrasound Mediated Activity vs Control (deoxyribose [2]): 238%

CO[C@@]12[C@H](COC(N)=O)C3=C(C(=O)C(C)=C(N)C3=O)N1C[C@@H]1N[C@@H]12 [Mitomycin C]
% Ultrasound Mediated Activity vs Control (deoxyribose [3]; 0.025 mM additive): >100%

Nc1ncnc2c1ncn2[C@@H]1O[C@H](COP(=O)(O)OP(=O)(O)O)[C@@H](O)[C@H]1O [Adenosine diphosphate (ADP), Adenosine diphosphate]
% Ultrasound Mediated Activity vs Control (deoxyribose [4]): 26% | % Ultrasound Mediated Activity vs Control (deoxyribose [5]): 280% | free radical production [6]: increase free radical production

CC1=CC(=O)c2c(O)cccc2C1=O [5-hydroxy-2-methyl-1,4-naphthoquinone]
% Ultrasound Mediated Activity (ferritin; 71 uM additive): 155%

COC1C(O)CC(OC2CC(Oc3cc4cc5c(c(O)c4c(O)c3C)C(=O)[C@@H](OC3CC(OC4CC(OC6CC(C)(O)C(OC(C)=O)C(C)O6)C(O)C(C)O4)C(O)C(C)O3)[C@H]([C@H](OC)C(=O)[C@@H](O)[C@@H](C)O)C5)OC(C)C2OC(C)=O)OC1C (some centres unmarked) [Chromomycin]
% Ultrasound Mediated Activity vs Control (deoxyribose [3]; 0.025 mM additive): >100%

COc1cccc2c1C(=O)c1c(O)c3c(c(O)c1C2=O)C[C@@](O)(C(=O)CO)C[C@@H]3O[C@H]1C[C@H](N)[C@@H](O)[C@H](C)O1 [Epirubicin]
% Ultrasound Mediated Activity vs Control (deoxyribose [3]; 0.1 mM additive): >100%

O=C(O)P(=O)(O)O [phosphonoformic acid]
radical production ([6]; added to an iron/EDTA system, ultrasound): radical production was increased

Olivomycin
% Ultrasound Mediated Activity vs Control (deoxyribose [3]; 0.025 mM additive): >100%

O=S([O-])[O-].[Na+].[Na+] [sodium sulfite]
free radical production [6]: increase free radical production

O=C1C=CC(=O)c2c(O)ccc(O)c21 [5,8 dihydroxy-1,4-naphthoquinone]
% Ultrasound Mediated Activity (ferritin; 106 uM additive): 185%

O=C(O)c1ccccn1 [Picolinic Acid]
% Ultrasound Mediated Activity vs Control (deoxyribose [4]): 53% | % Ultrasound Mediated Activity vs Control (deoxyribose [5]): 175%

O=C(O)CC(O)(CC(=O)O)C(=O)O [Citrate]
% Ultrasound Mediated Activity vs Control (deoxyribose [4]): 31% | % Ultrasound Mediated Activity vs Control (deoxyribose [5]): 161% | free radical production [6]: increase free radical production

O=S(=O)(O)c1ccc(-c2nnc(-c3ccccn3)nc2-c2ccc(S(=O)(=O)O)o2)o1 [3-(2-Pyridyl)-5,6-bis(5-sulfo-2-furyl)-1,2,4-triazine]
% Ultrasound Mediated Activity vs Control (deoxyribose [4]): 50% | % Ultrasound Mediated Activity vs Control (deoxyribose [5]): 207%

O=C(O)CN(CCN(CC(=O)O)CC(=O)O)CCN(CC(=O)O)CC(=O)O [Diethylenetriaminepentaacetic acid]
% Ultrasound Mediated Activity vs Control (deoxyribose [2]): 177%

c1cnc2c(c1)ccc1cccnc12 [1,10 Phenanthroline]
% Ultrasound Mediated Activity vs Control (deoxyribose [4]): 33%

CC(=O)N(O)CCCCCNC(=O)CCC(=O)N(O)CCCCCNC(=O)CCC(=O)N(O)CCCCCN [Desferrioxamine mesylate]
% Ultrasound Mediated Activity vs Control (deoxyribose [1]): 92% | % Ultrasound Mediated Activity vs Control (deoxyribose [2]): 81%

Cc1c(C(=O)O)c(O)cc2c1C(=O)c1c(O)c([C@@H]3O[C@H](CO)[C@@H](O)[C@H](O)[C@H]3O)c(O)c(O)c1C2=O [Carminic acid]
% Ultrasound Mediated Activity vs Control (deoxyribose [3]; 0.025 mM additive): >100%

O=C(O)CN(CC(=O)O)C1CCCCC1N(CC(=O)O)CC(=O)O (centres unmarked) [Diaminocyclohexane-N,N,N′,N′-tetraacetic acid]
% Ultrasound Mediated Activity vs Control (deoxyribose [1]): 61% | % Ultrasound Mediated Activity vs Control (deoxyribose [2]): 446%

O=C(O)CN(CCOCCOCCN(CC(=O)O)CC(=O)O)CC(=O)O [Ethylene glycol-bis(2-aminoethyl)-N,N,N′,N′-tetraacetic acid]
% Ultrasound Mediated Activity vs Control (deoxyribose [1]): 29% | % Ultrasound Mediated Activity vs Control (deoxyribose [2]): 520%

O=C(O)CN(CCO)CCN(CC(=O)O)CC(=O)O [N-(2-Hydroxyethyl)ethylenediamine-N,N′,N′-triacetic acid]
% Ultrasound Mediated Activity vs Control (deoxyribose [1]): 34% | % Ultrasound Mediated Activity vs Control (deoxyribose [2]): 224%

COC1=C(N)C(=O)c2nc(-c3nc(C(=O)O)c(C)c(-c4ccc(OC)c(OC)c4O)c3N)ccc2C1=O [Streptonigrin]
% Ultrasound Mediated Activity vs Control (deoxyribose [3]; 0.025 mM additive): >100%

O=S(=O)(O)c1ccc(-c2nnc(-c3ccccn3)nc2-c2ccc(S(=O)(=O)O)cc2)cc1 [3-(2-Pyridyl)-5,6-diphenyl-1,2,4-triazine-4,4-disulfonic acid]
% Ultrasound Mediated Activity vs Control (deoxyribose [4]): 45% | % Ultrasound Mediated Activity vs Control (deoxyribose [5]): 136%

COc1cccc2c1C(=O)c1c(O)c3c(c(O)c1C2=O)C[C@@](O)(C(C)=O)C[C@@H]3O[C@H]1C[C@H](N)[C@H](O)[C@H](C)O1 [Daunomycin]
% Ultrasound Mediated Activity vs Control (deoxyribose [3]; 0.1 mM additive): >100%
